The values that follow come from ChEMBL document CHEMBL4732038 (RSC Med Chem, 2021).

As a reminder, the inhibition is how much of the control response was suppressed. For orientation: MIC90 means an inhibitory concentration at the 90% level, which refers to growth in some studies and to a panel of isolates in others. The term EC50 denotes the midpoint of the concentration-response curve. A high value points to a less potent agent.

The test system of test [1] is Mycobacterium tuberculosis. The test is described as follows: Antitubercular activity against Mycobacterium tuberculosis H37Rv assessed as bacterial growth inhibition at 1 uM incubated for 5 days by resazurin microtiter assay relative to control. The class given is functional. Particulars: 120 h, time 5 day.
Test [2] has as its system Mycobacterium tuberculosis. The test is described as follows: Antitubercular activity against Mycobacterium tuberculosis H37Rv assessed as bacterial growth inhibition at 10 uM incubated for 5 days by resazurin microtiter assay relative to control. The class given is functional. The settings on record: 120 h, time 5 day.
The test system of test [3] is Mycobacterium tuberculosis. Briefly: Antitubercular activity against Mycobacterium tuberculosis H37Rv assessed as bacterial growth inhibition incubated for 5 days by resazurin microtiter assay. The class given is functional. The settings on record: 120 h, time 5 day. In general terms: Alamar Blue is a resazurin reagent that responds to reducing activity.
The target of test [4] is Voltage-gated inwardly rectifying potassium channel KCNH2 (Homo sapiens, UniProt Q12809). The test is described as follows: Inhibition of fluorescently labelled tracer binding to human ERG by competitive binding assay.
Sequence of Voltage-gated inwardly rectifying potassium channel KCNH2 (Q12809 whole entry): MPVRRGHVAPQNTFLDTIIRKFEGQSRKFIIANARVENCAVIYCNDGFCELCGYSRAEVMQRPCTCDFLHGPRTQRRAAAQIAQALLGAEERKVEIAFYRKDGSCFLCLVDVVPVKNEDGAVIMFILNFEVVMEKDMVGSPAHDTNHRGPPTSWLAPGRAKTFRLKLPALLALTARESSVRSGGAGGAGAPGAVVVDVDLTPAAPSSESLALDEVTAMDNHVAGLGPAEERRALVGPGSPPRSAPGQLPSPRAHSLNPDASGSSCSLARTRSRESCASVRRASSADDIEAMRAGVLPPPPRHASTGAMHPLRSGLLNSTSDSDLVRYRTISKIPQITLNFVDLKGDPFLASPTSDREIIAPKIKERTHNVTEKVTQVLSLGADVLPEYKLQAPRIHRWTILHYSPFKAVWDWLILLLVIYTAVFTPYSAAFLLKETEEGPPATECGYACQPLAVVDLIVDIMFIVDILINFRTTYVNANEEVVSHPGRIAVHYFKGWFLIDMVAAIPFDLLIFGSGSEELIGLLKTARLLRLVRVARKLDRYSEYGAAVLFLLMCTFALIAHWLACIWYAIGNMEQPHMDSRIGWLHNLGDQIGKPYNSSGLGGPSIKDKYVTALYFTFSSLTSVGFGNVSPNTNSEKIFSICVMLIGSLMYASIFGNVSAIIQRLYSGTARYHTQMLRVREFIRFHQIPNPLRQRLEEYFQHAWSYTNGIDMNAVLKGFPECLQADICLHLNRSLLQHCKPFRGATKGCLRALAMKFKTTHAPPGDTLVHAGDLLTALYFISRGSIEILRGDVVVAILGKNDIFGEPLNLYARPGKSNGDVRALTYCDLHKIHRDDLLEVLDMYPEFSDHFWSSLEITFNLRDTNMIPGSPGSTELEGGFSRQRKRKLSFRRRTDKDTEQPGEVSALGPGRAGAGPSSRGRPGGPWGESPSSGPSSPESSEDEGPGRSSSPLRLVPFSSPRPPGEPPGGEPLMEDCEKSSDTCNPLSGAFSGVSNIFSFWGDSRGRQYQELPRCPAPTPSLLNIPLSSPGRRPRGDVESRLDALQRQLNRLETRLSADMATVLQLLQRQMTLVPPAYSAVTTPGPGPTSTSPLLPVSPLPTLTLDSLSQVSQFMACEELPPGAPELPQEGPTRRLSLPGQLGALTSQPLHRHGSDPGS
For test [5], the system named is Mycobacterium tuberculosis. Briefly: Antitubercular activity against Mycobacterium tuberculosis H37Rv by broth microdilution method. The class given is functional. A general note: In broth dilution the organism is exposed to a series of concentrations in liquid medium.

SMILES strings stand for the structures. ≈ marks a conversion by molar mass, not a printed value.

For `COc1ncc(-c2ccc(F)cc2C#N)cc1C(c1ccccc1)C(O)(CCN(C)C)c1cccc2ccccc12` (configuration not stated), the inhibition at 1 µM in test [1] is 0%. For the same compound, in test [2], the inhibition at 10 µM came out at 100%.
Turning to `COc1ncc(-c2cccc(Cl)c2)cc1C(c1ccccc1)C(O)(CCN(C)C)c1cccc2ccccc12` (configuration not stated), in test [3], the MIC90 is 7.94 µM (≈ 4.26 µg/mL). The inhibition at 1 µM in test [1] was 5%. For the same compound, the inhibition at 10 µM in test [2] came out at 100%.
As to `COc1ncc(-c2ccc(F)c(C)c2)cc1C(c1ccccc1)C(O)(CCN(C)C)c1cccc2ccccc12` (configuration not stated), in test [1], the inhibition at 1 µM was 5%. The inhibition at 10 µM in test [2] stood at 100%.
In the case of `COc1ncc(-c2ccc(F)cc2F)cc1C(c1ccccc1)C(O)(CCN(C)C)c1cccc2ccccc12` (configuration not stated), the inhibition at 1 µM in test [1] amounted to 0%. The inhibition at 10 µM in test [2] was 100%.
For `COc1ncc(-c2ccccc2)cc1C(c1ccccc1)C(O)(CCN(C)C)c1cccc2ccccc12` (configuration not stated), the MIC90 in test [3] worked out at 5.51 µM (≈ 2.77 µg/mL). Also, the inhibition at 1 µM in test [1] came to 10%. For the same compound, in test [2], the inhibition at 10 µM amounted to 100%.
On to `COc1ncc(-c2ccc(C(F)(F)F)cc2Cl)cc1C(c1ccccc1)C(O)(CCN(C)C)c1cccc2ccccc12` (configuration not stated), for which, in test [1], the inhibition at 1 µM worked out at 5%. Also, the inhibition at 10 µM in test [2] was determined as 100%.
In the case of `COc1nc(OC)c([C@@H](c2ccccc2)[C@@](O)(CCN(C)C)c2cccc3ccccc23)cc1-c1ccc(C#N)cc1`, the MIC90 in test [3] came to 1 µM (≈ 0.558 µg/mL). The compound also returned a 50% effective concentration (EC50) in test [4] of 1520 nM.
Turning to `COc1ncc(-c2cccc3ccccc23)cc1C(c1ccccc1)C(O)(CCN(C)C)c1cccc2ccccc12` (configuration not stated), the inhibition at 1 µM in test [1] turned out to be 5%. In test [2], the inhibition at 10 µM worked out at 100%.
In the case of `COc1ncc(-c2ccc(OC(F)(F)F)cc2)cc1C(c1ccccc1)C(O)(CCN(C)C)c1cccc2ccccc12` (configuration not stated), in test [3], the MIC90 was 6.05 µM (≈ 3.55 µg/mL). Further, the inhibition at 1 µM in test [1] turned out to be 10%. Also, in test [2], the inhibition at 10 µM came to 100%.
In the case of `COc1ncc(-c2ccc(Cl)cc2Cl)cc1C(c1ccccc1)C(O)(CCN(C)C)c1cccc2ccccc12` (configuration not stated), the inhibition at 1 µM in test [1] stood at 0%. Moreover, the inhibition at 10 µM in test [2] came out at 100%.
Turning to `COc1nc(OC)c(C(c2ccccc2)C(O)(CCN(C)C)c2cccc3ccccc23)cc1-c1ccc(F)cc1` (configuration not stated), the MIC90 in test [3] came to 2.41 µM (≈ 1.33 µg/mL).
With `COc1ncc(-c2ccc(F)cc2)cc1C(c1ccccc1)C(O)(CCN(C)C)c1cccc2ccccc12` (configuration not stated), the MIC90 in test [3] is 0.8 µM (≈ 0.417 µg/mL). The inhibition at 1 µM in test [1] was 100%. For the same compound, the inhibition at 10 µM in test [2] is 100%.
With `COc1ncc(-c2ccc(Cl)c(C(F)(F)F)c2)cc1C(c1ccccc1)C(O)(CCN(C)C)c1cccc2ccccc12` (configuration not stated), in test [1], the inhibition at 1 µM stood at 0%. Moreover, the inhibition at 10 µM in test [2] amounted to 100%.
On to `COc1ncc(-c2ccccc2Cl)cc1C(c1ccccc1)C(O)(CCN(C)C)c1cccc2ccccc12` (configuration not stated), for which the MIC90 in test [3] turned out to be 4.52 µM (≈ 2.43 µg/mL). Further, in test [1], the inhibition at 1 µM was 0%. Also, in test [2], the inhibition at 10 µM stood at 100%.
In the case of `COc1nc2ccc(Br)cc2cc1[C@@H](c1ccccc1)[C@@](O)(CCN(C)C)c1cccc2ccccc12` [BEDAQUILINE], the MIC90 in test [3] came to 0.35 µM (≈ 0.194 µg/mL); in test [5] it was 0.027 µM (≈ 0.015 µg/mL).
Consider `COc1ncc(-c2ccc(Cl)cc2)cc1C(c1ccccc1)C(O)(CCN(C)C)c1cccc2ccccc12` (configuration not stated), for which the MIC90 in test [3] stood at 6.94 µM (≈ 3.73 µg/mL). Moreover, in test [1], the inhibition at 1 µM came out at 5%. For the same compound, in test [2], the inhibition at 10 µM stood at 100%.
In the same order, the values of `COc1ncc(-c2ccc(C(C)(C)C)cc2)cc1C(c1ccccc1)C(O)(CCN(C)C)c1cccc2ccccc12` (configuration not stated) are 3.09 µM (≈ 1.73 µg/mL), 90% and 100%.
Regarding `COc1ncc(-c2ccc(Cl)c(Cl)c2)cc1C(c1ccccc1)C(O)(CCN(C)C)c1cccc2ccccc12` (configuration not stated), the inhibition at 1 µM in test [1] was determined as 0%. In addition, in test [2], the inhibition at 10 µM is 100%.
In the same order, the values of `COc1ncc(-c2ccccc2C#N)cc1C(c1ccccc1)C(O)(CCN(C)C)c1cccc2ccccc12` (configuration not stated) are 0% and 90%.
In the case of `COc1ncc(-c2ccc(C(F)(F)F)cc2)cc1C(c1ccccc1)C(O)(CCN(C)C)c1cccc2ccccc12` (configuration not stated), the MIC90 in test [3] was 4.26 µM (≈ 2.43 µg/mL). Further, the inhibition at 1 µM in test [1] worked out at 5%. For the same compound, the inhibition at 10 µM in test [2] was 100%.
As for `COc1ncc(-c2ccc(C)c(Cl)c2)cc1C(c1ccccc1)C(O)(CCN(C)C)c1cccc2ccccc12` (configuration not stated), the inhibition at 1 µM in test [1] was determined as 5%. In addition, the inhibition at 10 µM in test [2] is 100%.
Consider `COc1ncc(-c2ccccc2OC(F)(F)F)cc1C(c1ccccc1)C(O)(CCN(C)C)c1cccc2ccccc12` (configuration not stated), for which, in test [1], the inhibition at 1 µM came to 0%. Moreover, the inhibition at 10 µM in test [2] came to 100%.
In the case of `COc1ncc(-c2cccc(F)c2)cc1C(c1ccccc1)C(O)(CCN(C)C)c1cccc2ccccc12` (configuration not stated), the MIC90 in test [3] came to 2.51 µM (≈ 1.31 µg/mL). In test [1], the inhibition at 1 µM came to 5%. The inhibition at 10 µM in test [2] worked out at 100%.
As to `COc1ncc(-c2ccc(F)c(Cl)c2)cc1C(c1ccccc1)C(O)(CCN(C)C)c1cccc2ccccc12` (configuration not stated), the inhibition at 1 µM in test [1] came to 0%. For the same compound, the inhibition at 10 µM in test [2] was determined as 100%.
Take `COc1ncc(-c2ccccc2F)cc1C(c1ccccc1)C(O)(CCN(C)C)c1cccc2ccccc12` (configuration not stated): in test [3], the MIC90 is 2.6 µM (≈ 1.35 µg/mL). Also, the inhibition at 1 µM in test [1] worked out at 0%. Besides, the inhibition at 10 µM in test [2] was determined as 100%.
Turning to `COc1ncc(Br)cc1C(c1ccccc1)C(O)(CCN(C)C)c1cccc2ccccc12` (mixture of isomers), the MIC90 in test [3] was > 10 µM.
Still for that read-out and setting: the value for `CO[C@H]1/C=C/O[C@@]2(C)Oc3c(C)c(O)c4c(O)c(c(/C=N/N5CCN(C)CC5)c(O)c4c3C2=O)NC(=O)/C(C)=C\C=C\[C@H](C)[C@H](O)[C@@H](C)[C@@H](O)[C@@H](C)[C@H](OC(C)=O)[C@@H]1C` [RIFAMPIN] was 0.006 µM (≈ 0.00494 µg/mL).
Turning to `COc1nc(OC)c([C@H](c2ccccc2)[C@](O)(CCN(C)C)c2cccc3ccccc23)cc1-c1ccc(C#N)cc1`, the MIC90 in test [3] was 8 µM (≈ 4.46 µg/mL).
On the same count and under the same terms, the result for `COc1nc(OC)c(C(c2ccccc2)C(O)(CCN(C)C)c2cccc3ccccc23)cc1-c1ccc(OC(F)(F)F)cc1` (configuration not stated) reads 2.34 µM (≈ 1.44 µg/mL); that for `COc1ccc(-c2cc(C(c3ccccc3)C(O)(CCN(C)C)c3cccc4ccccc34)c(OC)nc2OC)cc1` (configuration not stated), 3.94 µM (≈ 2.22 µg/mL).
Same read-out and setting: the value for `COc1nc(OC)c(C(c2ccccc2)C(O)(CCN(C)C)c2cccc3ccccc23)cc1-c1ccccc1` (configuration not stated) was 3.88 µM (≈ 2.07 µg/mL).
The same measure, in the same setting: the result for `COc1nc(OC)c(C(c2ccccc2)C(O)(CCN(C)C)c2cccc3ccccc23)cc1-c1ccc(C#N)cc1` (configuration not stated) reads 1.24 µM (≈ 0.692 µg/mL).
Consider `COc1nc(OC)c(C(c2ccccc2)C(O)(CCN(C)C)c2cccc3ccccc23)cc1-c1ccc(Cl)cc1` (configuration not stated), for which the MIC90 in test [3] came to 3.44 µM (≈ 1.95 µg/mL).
